Data: patent US7723328B2, “Methods of facilitating cell survival using neurotrophin mimetics” (The University of North Carolina at Chapel Hill, priority 2005, dated 2010)
“Also recorded” adds a separate entry of the source.

How the values were obtained:
hippocampal neurons [1] = assay: Hippocampal neuron survival with signaling pathway inhibitors; assay type: cell-based, mouse; conditions: BDNF/NGF 25 ng/ml, compounds 5 nM, 48 h
Description: (§1) Hippocampal neurons were prepared from E16-17 mouse embryos as previously described (Yang. T. et al. (2003) J Neurosci 23, 3353-3363). […] For studies employing p75^NTR+/+ and p75^NTR−/− neurons, mice carrying a mutation in exon 3 of the p75^NTR gene (Lee, K. F. et al. (1992) Cell 69, 737-749) were bred onto a B6 congenic background (>10 B6 backcrosses).
(§2) After 48 hours in culture, cell survival was assessed as previously described (Longo, F. M., Manthorpe. M., Xie. Y. M., Varon, S. (1997) J Neurosci Res 48, 1-17) using a combination of standard morphological criteria along with visual determination of whether a given cell converted MTT to its blue formazan product. The number of surviving neurons was determined by counting the total number of cells in each well that were both morphologically intact and filed with blue product (Longo F. M., Manthorpe. M., Xie, Y. M., Varon, S. (1997) J Neurosci Res 48, 1-17). For each neurotrophin or compound concentration, duplicate wells were counted and the resulting values averaged. Activity of each compound was confirmed by blinded counts. Counts were normalized to survival achieved with 25 ng/ml BDNF or to baseline survival. Fitting of dose-responsive curves was performed with Sigmaplot obtained from SYSTAT Software Inc. (Richmond, Calif., United States of America).
(§3) For all studies applying signaling inhibitors, p75^NTR antibodies or p75^NTR−/− neurons, survival was assessed at 48 hours.

p75^NTR = biological target: T1, p75^NTR (Homo sapiens, UniProt P08138); assay: proNGF binding to p75NTR by ELISA; conditions: 100 ng/ml proNGF
T1 construct: purchased R&D Systems
T1 sequence (P08138 with tags, fused parts or gaps limits assumed): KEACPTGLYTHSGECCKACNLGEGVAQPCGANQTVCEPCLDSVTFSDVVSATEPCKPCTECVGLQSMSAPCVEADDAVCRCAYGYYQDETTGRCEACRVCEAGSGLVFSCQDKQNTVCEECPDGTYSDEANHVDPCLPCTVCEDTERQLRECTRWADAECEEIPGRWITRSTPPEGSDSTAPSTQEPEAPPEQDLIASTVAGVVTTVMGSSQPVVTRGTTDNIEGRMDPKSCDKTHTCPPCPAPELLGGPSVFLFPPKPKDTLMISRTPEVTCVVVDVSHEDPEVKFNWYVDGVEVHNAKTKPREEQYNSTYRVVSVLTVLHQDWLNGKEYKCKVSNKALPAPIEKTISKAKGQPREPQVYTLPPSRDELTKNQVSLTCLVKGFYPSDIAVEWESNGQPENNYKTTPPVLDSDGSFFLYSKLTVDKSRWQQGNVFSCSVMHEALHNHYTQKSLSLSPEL
Description: (§4) Briefly, 96-well plates were incubated with 0.1 pmol (at 1 nM) of p75/Fc or TrkA/Fc recombinant protein obtained from R&D System (Minneapolis, Minn., United States of America) overnight at 4° C. followed by incubation with blocking buffer for 1 hour at room temperature. […] Plates were then washed five times with Tris-buffered saline (TBS) containing 0.05% Tween-20 and incubated with anti-NGF rabbit polyclonal antibody overnight at 4° C. Following five washes with TBS, wells were incubated for 2.5 hours at room temperature with anti-rabbit IgG HRP conjugate and washed five times. 3,3′,5,5′-tetramethyl-benzidine substrate was added and the optical density measured at 450 nm.

[2] = Preliminary studies of oral uptake and blood-brain barrier penetration; assay type: in vivo
hippocampal neurons [3] = assay: Hippocampal neuron survival with p75NTR antisera (antibody inhibition); assay type: cell-based, mouse; conditions: antiserum 1:100, 48 h
Description: as §1, §2, §3

[4] = test system: E16-17 mouse hippocampal neurons; assay: Hippocampal neuron survival (morphology plus MTT conversion); assay type: cell-based
Description: as §1, §2

TrkA-Fc = assay: NGF/TrkA-Fc binding by NGF ELISA; conditions: up to 10,000 nM compound
Description: as §4

[5] = test system: cortical and septal neurons; assay: Aβ-induced degeneration of cortical and septal neurons; assay type: cell-based
AKT = AKT activation western blot in hippocampal cultures; assay type: cell-based, mouse; conditions: 20 nM, relative to NGF
Description: For assays of Trk, AKT, NFκB, and ERK activation, hippocampal neurons derived from E16-17 mice were cultured in poly-L-lysine coated six-well plates (Corning, Inc., Corning, N.Y., United States of America) in DMEM containing 10% FBS, followed by incubation in serum-free DMEM for 2 hours before addition of neurotrophins or compounds. At the indicated time points, neurons were harvested in lysis buffer consisting of: 20 mM Tris, pH 8.0, 137 mM NaCl, 1% Igepal CA-630, 10% glycerol, 1 mM PMSF, 10 μg/ml aprotinin, 1 μg/ml leupeptin, 500 μM orthovanadate (Zhou, J., Valletta, J. S., Grimes, M. L., Mobley, W. C. (1995) J Neurochem 65, 1146-1156).
Lysates were centrifuged, the supernatant collected, and protein concentrations determined using the BCA Protein Assay Reagent obtained from Pierce (Rockford, Ill., United States of America). Western blots were performed as described previously (Yang, T. et al. (2003) J Neurosci 23, 3353-3363). Western blot signals were detected using the ECL Chemiluminescence System obtained by Amersham (Piscataway, N.J., United States of America) (Yang, T. et al. (2003) J Neurosci 23, 3353-3363).

[6] = Age-related hair loss in middle-aged male mice; assay type: in vivo
E17 hippocampal neurons = assay: Aβ-induced death of hippocampal neurons; assay type: cell-based; conditions: Aβ1-42 10 μM; NGF at 100 pg/ml
Description: Using previously well established protocols, Aβ was preincubated for 3 days in water to allow formation of oligomers. E17 hippocampal neurons were incubated for 5 days to allow for maturation prior to addition of Aβ with test compounds.

p75^NTR−/− cells = assay: Survival of p75NTR+/+ versus p75NTR-/- hippocampal neurons; assay type: cell-based, mouse; conditions: neurotrophins 1.8 nM, compounds 5 nM
Description: as §1, §2, §3

Compound: CCC(C)C(N)C(=O)NCCN1CCOCC1 (stereo not drawn) [Compound 4]
- effect of PD98059 (ERK inhibitor) on survival promoted by the substance (hippocampal neurons [1]; PD98059 50 μM): no significant decrease
- effect of SN50 (NFκB translocation inhibitor) on survival promoted by the substance (hippocampal neurons [1]; SN50 2.5 μg/ml): significantly reduced
- proNGF ELISA signal versus proNGF alone (p75^NTR; P<0.01): significantly less than proNGF alone
- decrement of proNGF binding to p75NTR (p75^NTR; at the highest concentration (range 1500 nM to 10,000 nM)): approximately 30%
- blood-brain barrier penetration [2]: blood-brain barrier penetration
- oral uptake [2]: significant oral uptake
- effect of Ab 9651 on promotion of neuron survival by the substance (hippocampal neurons [3]): completely blocked; also recorded: completely inhibits
- survival versus CM in the presence of Ab 9651 (hippocampal neurons [3]): not significant
- additive effect on survival with NGF ([4]; 5 nM compound along with 50 ng/ml NGF): no additive effect on survival
- EC50 ([4]; Mus musculus, Hippocampal neuron, dose-response, FIG. 2b, read-out: EC50 of survival-promoting (biologic) effect): ~0.15 nM
- effect on NGF binding to TrkA-Fc (TrkA-Fc): did not affect; also recorded: no compound effects up to 10,000 nM
- block of Aβ-induced degeneration of cortical and septal neurons [5]: block Aβ-induced degeneration of cortical and septal neurons
- onset of AKT activation (AKT): slower than that of NGF
- mice with hair loss, studies taken together ([6]; both studies pooled, p 0.001 Fisher's Exact test vs vehicle): 0 of 14
- mice with hair loss ([6]; follow up study, middle-aged male mice, 2-month time point): 0 of 9
- mice with age-related hair loss ([6]; three-month toxicology trial, male mice): 0 of 5
- protection against Aβ1-42-induced death (E17 hippocampal neurons): entirely block
- effect of p75NTR-deficiency on promotion of neuron survival by the substance (p75^NTR−/− cells): completely inhibits
